Source: patent US20030180228A1, “Aerosol container for formulations of salmeterol xinafoate” (priority 2000, published 2003)

Columns and labels:
[1] = Water content of salmeterol xinafoate HFA 134a canisters on storage, ex-valve Karl-Fischer; format: physicochemical
Method: The water content of the formulation may be determined by conventional Karl Fischer methodology. Typically this involves measuring the total water content of the formulation ex-valve using Couliometric titration.
(§1) In the experiments below canisters were stored in an inverted orientation. Valves all had 63 μl metering volume. Water content was measured ex-valve using Karl-Fischer methodology.
(§2) Aluminium canisters fitted with Valois D60 valve and containing 12 g HFA 134a and 6.53 mg salmeterol xinafoate were stored under various conditions of temperature and humidity and the moisture content measured and FPM measured (Andersen Cascade Impactor), with results as follows:
(§3) Aluminium canisters fitted with Valois DF60 valve and containing 12g HFA 134a and 6.53 mg salmeterol xinafoate were stored under various conditions of temperature and humidity and the moisture content measured and FPM measured (Andersen Cascade Impactor), with results as follows:
(§4) Aluminium canisters fitted with Bespak valve and containing […] and 6.53 mg salmeterol xinafoate were stored under various conditions of temperature and humidity and the moisture content measured and FPM measured (Andersen Cascade Impactor), with results as follows:
(§5) Aluminium canisters fitted with Valois DF60 valve and containing 12g HFA134a and 6.53 mg salmeterol xinafoate were stored under various conditions of temperature and humidity and the moisture content measured and FPM measured (Andersen Cascade Impactor), with results as follows: […]

[2] = Fine particle mass (FPM) by Andersen Cascade Impactor on storage, section A canisters; format: physicochemical
Method: The FPM of an actuation from an MDI can be calculated based on, for example, the sum of the amount of drug substance deposited on stages 3, 4 and 5 of an Andersen Cascade Impaction stack as determined by standard HPLC analysis.
as §1, §2, §3, §4, §5

[3] = (iii) Valois D60 valve, 30° C./60% RH, 3 months
[4] = (iii) Valois D60 valve, 40° C./75% RH, 1 month
[5] = (iii) Valois D60 valve, 40° C./75% RH, 3 months
[6] = (iii) Valois D60 valve, 40° C./75% RH, Initial
[7] = (iv) Valois DF60 valve, 25° C./60% RH, 1 month
[8] = (iv) Valois DF60 valve, 25° C./60% RH, 3 months
[9] = (iv) Valois DF60 valve, 25° C./60% RH, 6 month
[10] = (iv) Valois DF60 valve, 25° C./60% RH, Initial
[11] = (iv) Valois DF60 valve, 25° C./75% RH, 1 month
[12] = (iv) Valois DF60 valve, 25° C./75% RH, 3 months
[13] = (iv) Valois DF60 valve, 25° C./75% RH, 6 month
[14] = (iv) Valois DF60 valve, 25° C./75% RH, Initial
[15] = (iv) Valois DF60 valve, 40° C./75% RH, 1 month
[16] = (iv) Valois DF60 valve, 40° C./75% RH, 3 months
[17] = (iv) Valois DF60 valve, 40° C./75% RH, 6 month
[18] = (v) Bespak valve, 40° C./75% RH, 3 months
[19] = (vi) Valois DF60 valve, 40° C./75% RH, 3 months
[20] = (vii) Valois DF60 valve, 40° C./75% RH, 3 months

OCc1cc(C(O)CNCCCCCCOCCCCc2ccccc2)ccc1O (stereo not drawn) [salmeterol xinafoate, 4-Hydroxy-α^1-[[[6-(4-phenylbutoxy)hexyl]amino]methyl]-1,3-benzenedimethanol]
Water content ([1]; (iii) Valois D60 valve, 6.53 mg in 12 g HFA 134a, 30° C./60% RH, Initial): 92 ppm
Water content [1, 3]: 463 ppm
Water content [1, 4]: 412 ppm
Water content [1, 5]: 616 ppm
Water content [1, 6]: 92 ppm
Water content ([1]; (iv) Valois DF60 valve, 6.53 mg in 12 g HFA 134a, 40° C./75% RH, Initial): 81 ppm
Water content [1, 7]: 194 ppm
Water content [1, 8]: 405 ppm
Water content [1, 9]: 446 ppm
Water content [1, 10]: 81 ppm
Water content [1, 11]: 217 ppm
Water content [1, 12]: 434 ppm
Water content [1, 13]: 485 ppm
Water content [1, 14]: 81 ppm
Water content [1, 15]: 360 ppm
Water content [1, 16]: 540 ppm
Water content [1, 17]: 526 ppm
Water content ([1]; (v) Bespak valve, 6.53 mg in HFA 134a, 40° C./75% RH, Initial): 118 ppm
Water content [1, 18]: 457 ppm
Water content ([1]; (vi) Valois DF60 valve, 6.53 mg in 12 g HFA 134a, 40° C./75% RH, Initial): 213 ppm
Water content [1, 19]: 746 ppm
Water content ([1]; (vii) Valois DF60 valve, 6.53 mg in 12 g HFA134a, 40° C./75% RH, Initial): 181 ppm
Water content [1, 20]: 668 ppm
FPM [2, 3]: 7.9 µg
FPM ([2]; (iii) Valois D60 valve, 30° C./60% RH, Initial): 10.3 µg
FPM [2, 4]: 8.2 µg
FPM [2, 5]: 6.2 µg
FPM [2, 6]: 10.3 µg
FPM [2, 7]: 8.4 µg
FPM [2, 8]: 8.3 µg
FPM [2, 9]: 7.5 µg
FPM [2, 10]: 9.4 µg
FPM [2, 11]: 8.4 µg
FPM [2, 12]: 8.0 µg
FPM [2, 13]: 7.2 µg
FPM [2, 14]: 9.4 µg
FPM [2, 15]: 7.8 µg
FPM [2, 16]: 6.0 µg
FPM [2, 17]: 6.2 µg
FPM ([2]; (iv) Valois DF60 valve, 40° C./75% RH, Initial): 9.4 µg
FPM [2, 18]: 7.0 µg
FPM ([2]; (v) Bespak valve, 40° C./75% RH, Initial): 11.3 µg
FPM [2, 19]: 6.7 µg
FPM ([2]; (vi) Valois DF60 valve, 40° C./75% RH, Initial): 9.5 µg
FPM [2, 20]: 7.4 µg
FPM ([2]; (vii) Valois DF60 valve, 40° C./75% RH, Initial): 9.6 µg
